Laboratory results published in patent publication US11124499B2, “Pharmaceutical composition derived from Tecoma plant and a method for treating cancer” (National Guard Health Affairs, priority 2018, dated 2021).

Columns and labels:
[1] = test system: T-Cell Acute lymphocytic leukemia cell line (Jurkat); experiment: Apoptosis in Jurkat cells (FIG. 2); assay type: cell-based, human
Text: (§1) FIG. 2 is a bar graph summarizing the effect of compound Tecomaphorbide on apoptosis in human acute leukemia T-cells (Jurkat cells) and normal primary T-cells.

Jurkat = experiment: MTT cytotoxicity, Jurkat; assay type: cell-based; conditions: human acute T cell leukemia, 12 h exposure, mean±SD of three trials
Protocol: (§2) The cytotoxicity of Tecomaphorbide was tested against various cultured cell lines. Cells were exposed to various concentrations of Tecomaphorbide (ranging from 0.0 to 4.0 μM) for 12 h. Subsequently, the exposed cells were incubated with MTT reagent for 4 h and the developed color was analyzed spectrophotometrically. IC50 was determined from the sigmoidal curve of blotting percentage of cell viability versus the logarithm of concentration in μM using Graphpad Prism 6 program. The determined values summarized in Table 2 are the mean±SD value obtained from three independent trials.

normal primary T-cells = experiment: Apoptosis in normal primary T-cells (FIG. 2); assay type: cell-based, human
Text: as §1

MCF-7 = experiment: MTT cytotoxicity, MCF-7; assay type: cell-based; conditions: MCF7, MCF-7, human breast adenocarcinoma, 12 h exposure, mean±SD of three trials
Protocol: as §2

MV4-11 = experiment: MTT cytotoxicity, MV4-11; assay type: cell-based; conditions: MV4-11, human B myelomonocytic leukemia, 12 h exposure, mean±SD of three trials
Protocol: as §2

Caco-2 = experiment: MTT cytotoxicity, Caco-2; assay type: cell-based; conditions: Caco-2, human colorectal adenocarcinoma, 12 h exposure, mean±SD of three trials
Protocol: as §2

PC-3 = experiment: MTT cytotoxicity, PC-3; assay type: cell-based; conditions: PC-3, human prostate adenocarcinoma, 12 h exposure, mean±SD of three trials
Protocol: as §2

MOLM-13 = experiment: MTT cytotoxicity, MOLM-13; assay type: cell-based; conditions: MOLM-13, human acute monocytic leukemia, 12 h exposure, mean±SD of three trials
Protocol: as §2

HL-60 = experiment: MTT cytotoxicity, HL-60; assay type: cell-based; conditions: HL-60, human acute promyelocytic leukemia, 12 h exposure, mean±SD of three trials
Protocol: as §2

K562 = experiment: MTT cytotoxicity, K562; assay type: cell-based; conditions: K562, human chronic myelogenous leukemia, 12 h exposure, mean±SD of three trials
Protocol: as §2

U937 = experiment: MTT cytotoxicity, U937; assay type: cell-based; conditions: U-937, U937, human histiocytic lymphoma, 12 h exposure, mean±SD of three trials
Protocol: as §2

C=Cc1c(C=O)c2cc3nc(c4c5[nH]c(cc6nc(cc1[nH]2)C(C)=C6CC)c(C)c5C(=O)C4C(=O)OCC)C(CCC(=O)OC)C3C (centres unmarked) [Tecomaphorbide]
effect on apoptosis [1]: able to induce apoptosis | IC50 (Jurkat): 1210 ± 240 nM | effect on apoptosis (normal primary T-cells): minimal impact | IC50 (MCF-7): 2660 ± 480 nM | IC50 (MV4-11): 620 ± 140 nM | IC50 (Caco-2): 2830 ± 620 nM | IC50 (PC-3): 1940 ± 350 nM | IC50 (MOLM-13): 580 ± 170 nM | IC50 (HL-60): 460 ± 110 nM | IC50 (K562): 1530 ± 190 nM | IC50 (U937): 1380 ± 320 nM
